Each molecule was assayed on human coronavirus (229E). Conditions: not given.
Assay type: cell-based

Molecule	activity against human coronavirus (229E) lower than the activity observed with UDA
CCOC(=O)C1(Cc2ccccc2)CN(c2ccccc2)Cc2nnn(Cc3ccc(F)cc3)c21 (stereo not drawn) [Compound 14d]	approximately 50 fold
CCOC(=O)C1(Cc2ccccc2)CN(c2ccccc2)Cc2nnn(CCc3cc4ccccc4[nH]3)c21 (stereo not drawn) [Compound 14n]	approximately 50 fold
CCOC(=O)C1(Cc2ccc(F)cc2)CN(c2ccccc2)Cc2nnn(Cc3ccc(Cl)c(Cl)c3)c21 (stereo not drawn) [Compound 14q]	approximately 50 fold
COc1ccc(CCn2nnc3c2CCN(c2ccc(C(F)(F)F)cc2)C3)cc1 [Compound 18f]	approximately 50 fold
Fc1cccc(Cn2nnc3c2CCN(c2ccc(C(F)(F)F)cc2)C3)c1 [Compound 18i]	approximately 50 fold

Same assay, conditions: read-out: EC50 Human Coronavirus (229E)

Molecule	EC50
Urtica dioica agglutinin (protein, UniProt P11218 24-372, looked up) Lectin/endochitinase 1: QRCGSQGGGGTCPALWCCSIWGWCGDSEPYCGRTCENKCWSGERSDHRCGAAVGNPPCGQDRCCSVHGWCGGGNDYCSGSKCQYRCSSSVRGPRVALSGNSTANSIGNVVVTEPLFDQMFSHRKDCPSQGFYSYHSFLVAAESFPAFGTIGDVATRKREVAAFLAHISQATSGERSDVENPHAWGLCHINTTTVTENDFCTSSDWPCAAGKKYSPRGPIQLTHNFNYGLAGQAIGEDLIQNPDLVEKDPIISFKTALWFWMSQHDNKPSCHDIVLNANSAANRIPNKGVIGNIISRAFGHDDFAVRSSSIGFYKRYCDMLGVSYGHDLKYWFDNTPSSEFQRIQMRVAA	200 nM

Source: PMC7127349 (Bioorganic & Medicinal Chemistry Letters, 2018)
